Laboratory results published in the NIST ThermoML archive (doi:10.1021/je200309v).

Test: mn = molality of the nth substance listed, in mol/kg
Conditions: 101 kPa, Liquid, Alternating current cell with electrodes

CC[N+](CC)(CC)CC.F[B-](F)(F)F [tetraethylammonium tetrafluoroborate] + CC1COC(=O)O1
electrical conductivity [S/m]
Conditions	m1 = 0.1593	m1 = 0.461	m1 = 0.5658	m1 = 0.7282	m1 = 0.8234	m1 = 0.9666	m1 = 1.186	m1 = 1.425
253.15 K	0.1317	0.278	0.3133	0.3523	0.366	0.3749	0.359	–
273.15 K	0.239	0.519	0.591	0.676	0.712	0.745	0.75	0.689
293.15 K	0.364	0.812	0.929	1.07	1.128	1.19	1.201	1.116
313.15 K	0.516	1.16	1.333	1.543	1.635	1.73	1.77	1.69
333.15 K	0.678	1.535	1.76	2.049	2.18	2.314	2.4	2.307
